Measured values from PubChem BioAssay AID1259407 (Chemical Carcinogenesis Research Information System (CCRIS), 2018).
Activity calls are given as the source filed them. How the calls were made is not given here.

Tested on: CCRIS mutagenicity, Ames/micronucleus/aberration tests
Assay: CCRIS mutagenicity studies
[1] = Test System: AMES SALMONELLA TYPHIMURIUM, Strain/Indicator: TA98, Metabolic Activation: NONE, Method: PREINCUBATION
[2] = Test System: AMES SALMONELLA TYPHIMURIUM, Strain/Indicator: TA100, Metabolic Activation: NONE, Method: STANDARD PLATE
[3] = Test System: AMES SALMONELLA TYPHIMURIUM, Strain/Indicator: TA100, Metabolic Activation: NONE, Method: PREINCUBATION
[4] = Test System: AMES SALMONELLA TYPHIMURIUM, Strain/Indicator: TA1535, Metabolic Activation: NONE, Method: PREINCUBATION
[5] = Test System: AMES SALMONELLA TYPHIMURIUM, Strain/Indicator: TA1537, Metabolic Activation: NONE, Method: PREINCUBATION
[6] = Test System: AMES SALMONELLA TYPHIMURIUM, Strain/Indicator: TA1535, Metabolic Activation: NONE, Method: STANDARD PLATE

Measured: mutagenic call

C[C@H](CCC(=O)O)[C@H]1CC[C@H]2[C@@H]3CC[C@@H]4C[C@H](O)CC[C@]4(C)[C@H]3C[C@H](O)[C@]12C
inactive: [1] inactive; negative | Test System: AMES SALMONELLA TYPHIMURIUM, Strain/Indicator: TA98, Method: PREINCUBATION inactive; negative | [2] inactive; negative | Test System: AMES SALMONELLA TYPHIMURIUM, Strain/Indicator: TA100, Metabolic Activation: RAT, LIVER, S-9, AROCLOR 1254, Method: STANDARD PLATE inactive; negative

C=C(C)/C([O-])=N/[N+](C)(C)CC(C)O (stereo unspecified)
inactive: Test System: AMES SALMONELLA TYPHIMURIUM, Strain/Indicator: TA97, Metabolic Activation: HAMSTER, LIVER, S-9, AROCLOR 1254 (10 OR 30%), Method: PREINCUBATION inactive; negative | Test System: AMES SALMONELLA TYPHIMURIUM, Strain/Indicator: TA97, Metabolic Activation: NONE, Method: PREINCUBATION inactive; negative | Test System: AMES SALMONELLA TYPHIMURIUM, Strain/Indicator: TA97, Metabolic Activation: RAT, LIVER, S-9, AROCLOR 1254 (10 OR 30%), Method: PREINCUBATION inactive; negative | Test System: AMES SALMONELLA TYPHIMURIUM, Strain/Indicator: TA98, Metabolic Activation: HAMSTER, LIVER, S-9, AROCLOR 1254 (10 OR 30%), Method: PREINCUBATION inactive; negative | [1] inactive; negative | Test System: AMES SALMONELLA TYPHIMURIUM, Strain/Indicator: TA98, Metabolic Activation: RAT, LIVER, S-9, AROCLOR 1254 (10 OR 30%), Method: PREINCUBATION inactive; negative | Test System: AMES SALMONELLA TYPHIMURIUM, Strain/Indicator: TA100, Metabolic Activation: HAMSTER, LIVER, S-9, AROCLOR 1254 (10 OR 30%), Method: PREINCUBATION inactive; negative | [3] inactive; negative | Test System: AMES SALMONELLA TYPHIMURIUM, Strain/Indicator: TA100, Metabolic Activation: RAT, LIVER, S-9, AROCLOR 1254 (10 OR 30%), Method: PREINCUBATION inactive; negative | Test System: AMES SALMONELLA TYPHIMURIUM, Strain/Indicator: TA1535, Metabolic Activation: HAMSTER, LIVER, S-9, AROCLOR 1254 (10 OR 30%), Method: PREINCUBATION inactive; negative | [4] inactive; negative | Test System: AMES SALMONELLA TYPHIMURIUM, Strain/Indicator: TA1535, Metabolic Activation: RAT, LIVER, S-9, AROCLOR 1254 (10 OR 30%), Method: PREINCUBATION inactive; negative

C1CCCNCC1
inactive: [1] inactive; negative | Test System: AMES SALMONELLA TYPHIMURIUM, Strain/Indicator: TA98, Metabolic Activation: RAT LIVER S-9, PHENOBARBITAL AND BETA-NAPHTHOFLAVONE, Method: PREINCUBATION inactive; negative | [3] inactive; negative | Test System: AMES SALMONELLA TYPHIMURIUM, Strain/Indicator: TA100, Metabolic Activation: RAT LIVER S-9, PHENOBARBITAL AND BETA-NAPHTHOFLAVONE, Method: PREINCUBATION inactive; negative | [4] inactive; negative | Test System: AMES SALMONELLA TYPHIMURIUM, Strain/Indicator: TA1535, Metabolic Activation: RAT LIVER S-9, PHENOBARBITAL AND BETA-NAPHTHOFLAVONE, Method: PREINCUBATION inactive; negative | [5] inactive; negative | Test System: AMES SALMONELLA TYPHIMURIUM, Strain/Indicator: TA1537, Metabolic Activation: RAT LIVER S-9, PHENOBARBITAL AND BETA-NAPHTHOFLAVONE, Method: PREINCUBATION inactive; negative | Test System: E.COLI, Strain/Indicator: WP2UVRA, Metabolic Activation: NONE, Method: PREINCUBATION inactive; negative | Test System: E.COLI, Strain/Indicator: WP2UVRA, Metabolic Activation: RAT LIVER S-9, PHENOBARBITAL AND BETA-NAPHTHOFLAVONE, Method: PREINCUBATION inactive; negative

COP(=S)(OC)SCn1nnc2ccccc2c1=O
inactive: End Point: In vitro Chromosomal aberrations, Test System: Human lymphocytes, Metabolic Activation: None inactive; negative; lymphocytes from 1 male and 1 female; azinphos-methyl purity 92.9% | Test System: AMES SALMONELLA TYPHIMURIUM, Strain/Indicator: TA98, Metabolic Activation: HAMSTER, LIVER, S-9, AROCLOR 1254 (10%), Method: PREINCUBATION inactive; negative | [1] inactive; negative | Test System: AMES SALMONELLA TYPHIMURIUM, Strain/Indicator: TA100, Metabolic Activation: HAMSTER, LIVER, S-9, AROCLOR 1254 (10%), Method: PREINCUBATION inactive; negative | [3] inactive; negative | Test System: AMES SALMONELLA TYPHIMURIUM, Strain/Indicator: TA100, Metabolic Activation: RAT, LIVER, S-9, AROCLOR 1254 (10%), Method: PREINCUBATION inactive; negative | Test System: AMES SALMONELLA TYPHIMURIUM, Strain/Indicator: TA1535, Metabolic Activation: HAMSTER, LIVER, S-9, AROCLOR 1254 (10%), Method: PREINCUBATION inactive; negative | [4] inactive; negative | Test System: AMES SALMONELLA TYPHIMURIUM, Strain/Indicator: TA1535, Metabolic Activation: RAT, LIVER, S-9, AROCLOR 1254 (10%), Method: PREINCUBATION inactive; negative | Test System: AMES SALMONELLA TYPHIMURIUM, Strain/Indicator: TA1537, Metabolic Activation: HAMSTER, LIVER, S-9, AROCLOR 1254 (10%), Method: PREINCUBATION inactive; negative | [5] inactive; negative | Test System: AMES SALMONELLA TYPHIMURIUM, Strain/Indicator: TA1537, Metabolic Activation: RAT, LIVER, S-9, AROCLOR 1254 (10%), Method: PREINCUBATION inactive; negative
active: End Point: In vitro Chromosomal aberrations, Test System: Human lymphocytes, Metabolic Activation: Rat, liver, S-9 active; positive (structural and ploidy); lymphocytes from 1 male and 1 female; azinphos | Test System: AMES SALMONELLA TYPHIMURIUM, Strain/Indicator: TA98, Metabolic Activation: RAT, LIVER, S-9, AROCLOR 1254 (10%), Method: PREINCUBATION active; positive

COC1OC1(C)C (stereo unspecified)
active: [2] active; positive | [6] active; positive

CNC(=O)c1c(N(C)N=O)ncn1C
inactive: Test System: AMES SALMONELLA TYPHIMURIUM, Strain/Indicator: TA98, Metabolic Activation: NONE, Method: STANDARD PLATE inactive; negative | Test System: AMES SALMONELLA TYPHIMURIUM, Strain/Indicator: TA98, Metabolic Activation: S-9, Method: PREINCUBATION inactive; negative | Test System: AMES SALMONELLA TYPHIMURIUM, Strain/Indicator: TA98, Metabolic Activation: S-9, Method: STANDARD PLATE inactive; negative | [2] inactive; negative | Test System: AMES SALMONELLA TYPHIMURIUM, Strain/Indicator: TA100, Metabolic Activation: S-9, Method: PREINCUBATION inactive; negative | Test System: AMES SALMONELLA TYPHIMURIUM, Strain/Indicator: TA100, Metabolic Activation: S-9, Method: STANDARD PLATE inactive; negative | Test System: AMES SALMONELLA TYPHIMURIUM, Strain/Indicator: TA102, Metabolic Activation: NONE, Method: STANDARD PLATE inactive; negative | Test System: AMES SALMONELLA TYPHIMURIUM, Strain/Indicator: TA102, Metabolic Activation: S-9, Method: PREINCUBATION inactive; negative | Test System: AMES SALMONELLA TYPHIMURIUM, Strain/Indicator: TA102, Metabolic Activation: S-9, Method: STANDARD PLATE inactive; negative | [6] inactive; negative | Test System: AMES SALMONELLA TYPHIMURIUM, Strain/Indicator: TA1535, Metabolic Activation: S-9, Method: PREINCUBATION inactive; negative | Test System: AMES SALMONELLA TYPHIMURIUM, Strain/Indicator: TA1535, Metabolic Activation: S-9, Method: STANDARD PLATE inactive; negative | Test System: AMES SALMONELLA TYPHIMURIUM, Strain/Indicator: TA1537, Metabolic Activation: NONE, Method: STANDARD PLATE inactive; negative | Test System: AMES SALMONELLA TYPHIMURIUM, Strain/Indicator: TA1537, Metabolic Activation: S-9, Method: PREINCUBATION inactive; negative | Test System: AMES SALMONELLA TYPHIMURIUM, Strain/Indicator: TA1537, Metabolic Activation: S-9, Method: STANDARD PLATE inactive; negative

Nc1ccc(-c2cc(Cl)c(N)c(Cl)c2)cc1Cl
active: Test System: AMES SALMONELLA TYPHIMURIUM, Strain/Indicator: TA98/1,8-DNP6, Metabolic Activation: HAMSTER, LIVER, S-9, Method: PREINCUBATION active; positive | Test System: AMES SALMONELLA TYPHIMURIUM, Strain/Indicator: TA98, Metabolic Activation: HAMSTER, LIVER, S-9, Method: PREINCUBATION active; positive | [1] active; positive | Test System: AMES SALMONELLA TYPHIMURIUM, Strain/Indicator: TA100, Metabolic Activation: HAMSTER, LIVER, S-9, Method: PREINCUBATION active; positive
